Data from patent US20060142269A1, “New compounds” (priority 2004, published 2006).
Where a name gives a salt, the structure may show the parent alone. Read-outs that look alike come from different tables or passages of the source.

Tests used:
human 5-HT6 receptor [1] = target: T1, human 5-HT6 receptor (Homo sapiens, UniProt P50406); test: 5-HT6 receptor binding assay ([3H]-LSD displacement, SPA, membranes of transfected HEK293 cells)
T1 construct: expressed in transfected cells; host or cells: HEK293 (G-418 selected)
T1 sequence (P50406 whole entry): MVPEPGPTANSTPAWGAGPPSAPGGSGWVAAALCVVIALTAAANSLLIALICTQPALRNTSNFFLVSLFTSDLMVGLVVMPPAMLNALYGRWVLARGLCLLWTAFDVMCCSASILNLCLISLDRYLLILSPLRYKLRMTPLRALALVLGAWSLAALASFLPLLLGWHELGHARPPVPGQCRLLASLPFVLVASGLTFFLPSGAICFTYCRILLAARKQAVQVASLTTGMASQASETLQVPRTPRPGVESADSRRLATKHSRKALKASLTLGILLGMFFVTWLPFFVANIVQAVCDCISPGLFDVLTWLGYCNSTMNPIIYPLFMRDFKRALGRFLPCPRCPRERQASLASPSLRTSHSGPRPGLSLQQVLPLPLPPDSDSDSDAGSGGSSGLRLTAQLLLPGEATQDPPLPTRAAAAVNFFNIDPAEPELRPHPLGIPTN

human 5-HT6 receptor [2] = target: T1, human 5-HT6 receptor; test: 5-HT6 receptor intrinsic activity assay (inhibition of 5-HT induced increase in cAMP in HEK293/5-HT6 cells); type: cell-based; details: read-out: Antagonist potency at the human 5-HT6 receptor, IC50,corr
Experimental: (1997) Neuropharmacology 36: 713-720). Briefly, HEK293/5-HT6 cells were seeded in polylysine coated 96-well plates at a density of 25,000/well and grown in DMEM (Dulbecco's Modified Eagle Medium) (without phenol-red) containing 5% dialyzed Foetal Bovine Serum for 48 h at 37° C. in a 5% CO2 incubator. The medium was then aspirated and replaced by 0.1 ml assay medium (Hanks Balance Salt Solution containing 20 mM HEPES, 1.5 mM isobutylmethylxanthine and 1 mg/ml bovine serum albumin). After addition of test substances, 50 μl dissolved in assay medium, the cells were incubated for 10 min at 37° C. in a 5% CO2 incubator. The medium was again aspirated and the cAMP content was determined using a radioactive cAMP kit (Amersham Pharmacia Biotech, BIOTRAK RPA559).

[3] = [3H]LSD 3 nM, HEK293 membranes, read-out: Binding affinity (Ki) at the human 5-HT6 receptor

With `COc1ccc(C)cc1OS(=O)(=O)c1cc(N2CCNCC2)c2occc2c1` [Example 1, 2-Methoxy-5-methylphenyl 7-piperazin-1-yl-1-benzofuran-5-sulfonate, trifluoroacetate] the Ki (human 5-HT6 receptor [1]; [3]) was 0.0006 µM.
Work on `O=S(=O)(Oc1ccccc1Cl)c1cc(N2CCNCC2)c2occc2c1` [Example 2, 2-Chlorophenyl 7-piperazin-1-yl-1-benzofuran-5-sulfonate, trifluoroacetate] yielded an IC50 (human 5-HT6 receptor [2]) of 0.024 µM and a Ki (human 5-HT6 receptor [1]; [3]) of 0.0023 µM.
With `O=S(=O)(Oc1ccccc1C(F)(F)F)c1cc(N2CCNCC2)c2occc2c1` [Example 3, 2-(Trifluoromethyl)phenyl 7-piperazin-1-yl-1-benzofuran-5-sulfonate, trifluoroacetate] the Ki (human 5-HT6 receptor [1]; [3]) was 0.002 µM.
`COc1ccc(C)cc1OS(=O)(=O)c1cc(CN2CCN(C)CC2)c2occc2c1` [Example 5, 2-Methoxy-5-methylphenyl 7-[(4-methylpiperazin-1-yl)methyl]-1-benzofuran-5-sulfonate bis(trifluoroacetate)] showed an IC50 (human 5-HT6 receptor [2]) of 0.049 µM.
For `NCCc1c[nH]c2ccc(O)cc12` [Example 5-HT, 5-hydroxytryptamine], the Hill coefficient (human 5-HT6 receptor [1]; over three experiments) was 0.94 (SD 0.09).
`CN1CCN(c2cc(S(=O)(=O)Oc3cccnc3)cc3ccoc23)CC1` [Example 7, Pyridin-3-yl 7-(4-methylpiperazin-1-yl)-1-benzofuran-5-sulfonate trifluoroacetate] showed an IC50 (human 5-HT6 receptor [2]) of 0.073 µM.
Work on `COc1cccc(OS(=O)(=O)c2cc(N3CCN[C@H](C)C3)c3occc3c2)c1OC` [Example 9, 2,3-Dimethoxyphenyl 7-[(3R)-3-methylpiperazin-1-yl]-1-benzofuran-5-sulfonate trifluoroacetate] yielded an IC50 (human 5-HT6 receptor [2]) of 0.049 µM.
For `C[C@@H]1CN(Cc2cc(S(=O)(=O)Oc3ccccc3C(N)=O)cc3ccoc23)CCN1` [Example 16, 2-(Aminocarbonyl)phenyl 7-{[(3R)-3-methylpiperazin-1-yl]methyl}-1-benzofuran-5-sulfonate bis(trifluoroacetate)], the IC50 (human 5-HT6 receptor [2]) was 0.199 µM.
`COc1ccc(C)cc1OS(=O)(=O)c1cc(CN2CCCNCC2)c2occc2c1` [Example 18, 2-Methoxy-5-methylphenyl 7-(1,4-diazepan-1-ylmethyl)-1-benzofuran-5-sulfonate trifluoroacetate] showed an IC50 (human 5-HT6 receptor [2]) of 0.487 µM.
`CN1C[C@@H](NS(=O)(=O)N(C)C)C[C@@H]2c3cccc4c3c(cn4C)C[C@H]21` [mesulergide] showed a Ki (human 5-HT6 receptor [1]; over all average, 5-HT tested against two different membrane preparations, read-out: Ki value, inhibition of [3H]LSD binding (rank order of potency of unlabelled ligands)) of 1.97 µM.
Compound `CC[C@@H](CO)NC(=O)[C@@H]1C=C2c3cccc4c3c(cn4C)C[C@H]2N(C)C1` [methysergide] has a Ki (human 5-HT6 receptor [1]) of 0.482 µM.
